In this assay the test system is pErk2 (Phospho-p44/42 MAP kinase (Thr202/Tyr204)). Put plainly: Detection of pErk2 (phospho-p44/42 MAP kinase) in immobilized Jurkat cell lysates (antibody A3). The assay is classed as cell-based, human. The following applies: Jurkat cells treated with 10 μM for 180 min. Here is the method: Human T-cell cultures (Jurkat, DMZ # ACC282) are utilized for the detection of biologically relevant protein analytes in “immobilization samples”. These cells are cultivated at 37° C. in a solution containing RPMI 1640, 10% FCS (fetal calf serum), 2 mM glutamine, 50 U/ml penicillin, 50 μg/ml streptamycine (cell density at about 0.5×10^6-1.0×10^6 cells/ml). […] A cell culture, which is similar to the one described above but not treated with antibodies, is used as a comparison sample and shall serve as a negative control in the analytical detection method. […] The cells here are simply separated from the medium, without damage to the cells. The supernatant is then decanted, and lysis buffer (7 M urea, 2 M thiourea, 4% CHAPS, 1% DTT, 4 mM spermidine and Complete (protease inhibitor, Roche AG, 1 tablet/50 ml) is added, the total protein concentration being adjusted to about 10 mg/ml. Thereby, all protein-containing cell components are denatured spontaneously and completely and solubilized. The samples obtained by the preparation steps described above are again diluted by a factor of 10 to a total protein concentration of about 1 mg/ml, and are then deposited in discrete measurement areas for generating an array of measurement areas on the evanescent field sensor platform provided with the adhesion-promoting layer. […]

With `CN[C@@H]1C[C@H]2O[C@@](C)([C@@H]1OC)n1c3ccccc3c3c4c(c5c6ccccc6n2c5c31)C(=O)NC4` [staurosporin, staurosporine], the “pErk2 signal of the nonstimulated control sample compared with the treated sample” value was “only slightly higher”.

For the origin of these results see US20040166508A1, “Analytical platform and detection method with the analytes to be determined in a sample as immobilized specific binding partners, optionally after fractionation of said sample” (priority 2002, published 2004).
